Results: ChEMBL document CHEMBL1201862, “PubChem BioAssay data set” (2004)
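Exposure lasted 48 hours, with cells grown in 96-well plates and compounds tested at five concentrations. At the GI50, growth is halved.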 Active and inactive are the calls of the source. No stated cut-off is given here; in the data, active = GI50 up to about 1.1 µM and inactive = higher.

What was measured:
Assay in all cases: NCI anticancer screen, dose series, 48 h
[1] = system: SNB-78
[2] = system: PC-3
[3] = system: UACC-257
[4] = system: SK-OV-3
[5] = system: NCI/ADR-RES
[6] = system: CCRF-CEM
[7] = system: KM12
[8] = system: HCT-116
[9] = system: MDA-MB-231
[10] = system: HCC 2998
[11] = system: OVCAR-3
[12] = system: RXF 393
[13] = system: OVCAR-8
[14] = system: SNB-19
[15] = system: SK-MEL-2
[16] = system: XF498
[17] = system: A498
[18] = system: KM-20L2
[19] = system: HT-29
[20] = system: DMS-273
[21] = system: UACC-62
[22] = system: SK-MEL-28
[23] = system: NCI-H460
[24] = system: COLO 205
[25] = system: K562
[26] = system: NCI-H23
[27] = system: MDA-N
[28] = system: EKVX
[29] = system: RPMI-8226
[30] = system: SK-MEL-5
[31] = system: ACHN
[32] = system: HCT-15
[33] = system: SF-539
[34] = system: OVCAR-5
[35] = system: SNB-75
[36] = system: NCI-H226
[37] = system: SF-295
[38] = system: SR
[39] = system: M14
[40] = system: SW-620
[41] = system: NCI-H522
[42] = system: Hs-578T
[43] = system: A549
[44] = system: HOP-62
[45] = system: LOX IMVI
[46] = system: TK-10
[47] = system: DU-145
[48] = system: HL-60
[49] = system: 786-0
[50] = system: IGROV-1
[51] = system: HOP-92
[52] = system: BT-549
[53] = system: MDA-MB-435
[54] = system: SN12C
[55] = system: DLD-1
[56] = system: UO-31
[57] = system: T47D
[58] = system: SF-268
[59] = system: OVCAR-4
[60] = system: U-251
[61] = system: MOLT-4

CC(C)=CC(=O)OC1C2C(C)=CC(=O)C(O)C2(C)C2C3(O)OCC24C(CC(=O)OC14)C(C)C3O (stereo unspecified)
GI50 [1]: 31.1 nM (active) | GI50 [2]: 2.89 nM (active) | GI50 [3]: 11.3 nM (active) | GI50 [4]: 213 nM (active) | GI50 [5]: 72.4 nM (active) | GI50 [6]: 8.59 nM (active) | GI50 [7]: 13.9 nM (active) | GI50 [8]: 5.19 nM (active) | GI50 [9]: 16.8 nM (active) | GI50 [10]: 12.8 nM (active) | GI50 [11]: 6.24 nM (active) | GI50 [12]: 14.9 nM (active) | GI50 [13]: 17 nM (active) | GI50 [14]: 3.49 nM (active) | GI50 [15]: 17.9 nM (active) | GI50 [16]: 24.6 nM (active) | GI50 [17]: 117 nM (active) | GI50 [18]: 31.6 nM (active) | GI50 [19]: 10.4 nM (active) | GI50 [20]: 3.48 nM (active) | GI50 [21]: 9.25 nM (active) | GI50 [22]: 4.61 nM (active) | GI50 [23]: 29.4 nM (active) | GI50 [24]: 97.5 nM (active) | GI50 [25]: 5.21 nM (active) | GI50 [26]: 6.55 nM (active) | GI50 [27]: 2.08 nM (active) | GI50 [28]: 57.7 nM (active) | GI50 [29]: 7.55 nM (active) | GI50 [30]: 3.08 nM (active) | GI50 [31]: 22 nM (active) | GI50 [32]: 42.6 nM | GI50 [33]: 5.05 nM (active) | GI50 [34]: 10.1 nM (active) | GI50 [35]: 14.1 nM (active) | GI50 [36]: 9.84 nM (active) | GI50 [37]: 27.7 nM (active) | GI50 [38]: 0.774 nM (active) | GI50 [39]: 2.3 nM (active) | GI50 [40]: 8.22 nM (active) | GI50 [41]: 2.83 nM (active) | GI50 [42]: 2.25 nM (active) | GI50 [43]: 152 nM (active) | GI50 [44]: 9.42 nM (active) | GI50 [45]: 1.5 nM (active) | GI50 [46]: 21.6 nM (active) | GI50 [47]: 3.54 nM (active) | GI50 [48]: 2.69 nM (active) | GI50 [49]: 10 nM (active) | GI50 [50]: 8.49 nM (active) | GI50 [51]: 6.84 nM (active) | GI50 [52]: 2.87 nM (active) | GI50 [53]: 3 nM (active) | GI50 [54]: 47.9 nM (active) | GI50 [55]: 21.1 nM (active) | GI50 [56]: 203 nM (active) | GI50 [57]: 2.88 nM (active) | GI50 [58]: 29 nM (active) | GI50 [59]: 13.5 nM (active) | GI50 [60]: 3.24 nM (active) | GI50 [61]: 1.1 nM (active)
